Read-outs that look alike come from different tables or passages of the source.
Key:
NET = NET (Homo sapiens (Human), UniProt P23975); experiment: NET binding
DAT = DAT (Homo sapiens (Human), UniProt Q01959); experiment: DAT binding
SERT = SERT (Homo sapiens (Human), UniProt P31645); experiment: SERT binding
[1] = target: 5-HT uptake, rat brain synaptosomes (Rattus norvegicus (Rat), UniProt P31652); experiment: 5-HT uptake inhibition in rat brain synaptosomes; assay type: biochemical
Method: (§1) The effects of exemplary compounds of the invention on the cellular uptake of norepinephrine (NE), dopamine (DA) and serotonin (5-HT) were tested in preparations of synaptosomes from different rat brain regions using the previously-reported techniques referenced below.
(§2) Whole brains were obtained from normal rats. Synaptosomal preparations were made from either whole brain (5-HT), striatum (DA) or hypothalamus (NE) by gentle disruption in 10 volumes (w/v) of 0.32 M sucrose (0-4° C.) using a Teflon-glass homogenizer. The homogenate was then centrifuged at 1000×g for 10 min. The supernatant was retained and centrifuged at 23000 g for 20 min. The resulting pellet was gently resuspended in 200 volumes of 0.32 M sucrose (0-4° C.) using the Teflon-glass homogenizer. Aliquots (250 μL) of this preparation were added to tubes, along with 0.2 μCi/mL of [^3H]5-HT, [^3H]DA, or [^3H]NE, 200 μL of the test compounds (to yield final concentrations of 100 nM, 300 nM, 1 μM, 3 μM, 10 μM, 30 μM or 100 μM) and 1 mL of Krebs-Ringer bicarbonate buffer (pH 7.4). The mixtures were incubated for either 15 (DA and 5-HT uptake) or 20 (NE uptake) minutes at 37° C. At the end of this period, the assay was terminated by rapid filtration over Whatman GF/C glass fiber filters. The filters were rinsed 3 times with 4 ml of Krebs-Ringer bicarbonate buffer (0-4° C.), and the radioactivity retained on the filters measured by liquid scintillation spectrometry.
(§3) Each assay was run according to the description of the respective publications cited above, and according to the following parameters/reagents/conditions.
(§4) In each experiment, the respective reference compound was tested concurrently with the test compounds in order to assess the assay suitability. It was tested at several concentrations (for IC50 value determination). The assay was considered valid if the suitability criteria were met, in accordance with the corresponding Standard Operating Procedure.
Individual and mean values are presented with the results. The IC50 values (concentration causing a half-maximal inhibition of control values) were determined by non-linear regression analysis of the inhibition curves using Hill equation curve fitting.

[2] = target: dopamine (DA) uptake, rat striatum synaptosomes (Rattus norvegicus (Rat), UniProt P23977); experiment: Dopamine (DA) uptake inhibition in rat striatum synaptosomes; assay type: biochemical
Chain of dopamine (DA) uptake, rat striatum synaptosomes (P23977 whole entry): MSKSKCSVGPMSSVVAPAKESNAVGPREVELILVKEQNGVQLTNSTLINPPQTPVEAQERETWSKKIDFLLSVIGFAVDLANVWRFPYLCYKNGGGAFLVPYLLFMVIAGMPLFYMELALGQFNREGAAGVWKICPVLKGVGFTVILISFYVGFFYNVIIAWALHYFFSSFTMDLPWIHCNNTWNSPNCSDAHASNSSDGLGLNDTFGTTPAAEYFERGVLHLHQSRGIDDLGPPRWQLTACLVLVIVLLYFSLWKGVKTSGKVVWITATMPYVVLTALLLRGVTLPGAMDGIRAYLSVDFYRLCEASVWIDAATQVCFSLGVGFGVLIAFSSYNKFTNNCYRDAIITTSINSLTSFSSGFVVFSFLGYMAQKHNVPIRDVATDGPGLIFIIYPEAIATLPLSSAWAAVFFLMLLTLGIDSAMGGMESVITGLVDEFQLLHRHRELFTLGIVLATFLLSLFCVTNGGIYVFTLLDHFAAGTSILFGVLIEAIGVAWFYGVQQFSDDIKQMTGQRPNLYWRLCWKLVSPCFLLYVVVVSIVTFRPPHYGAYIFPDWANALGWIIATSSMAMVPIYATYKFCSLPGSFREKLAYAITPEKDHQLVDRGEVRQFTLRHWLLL
Method: as §1, §2, §3, §4
The results of these uptake inhibition assays are expressed below as a percent of control values obtained in the […] of the test compounds. Individual and mean values are presented with the results. The IC50 values (concentration causing a half-maximal inhibition of control values) were determined by non-linear regression analysis of the inhibition curves using Hill equation curve fitting.

[3] = tested on: reuptake of norepinephrine, serotonin and dopamine; conditions: reported in the literature (Skolnick et al. 2003); cited from earlier work
[4] = [3H]5-HT, rat brain synaptosomes, 15 min at 37° C., read-out: Uptake IC50 (nM) 5-HT

Row | Structure (SMILES) | Ki (NET; read-out: Binding NET Ki) | Ki (DAT; read-out: Binding DAT Ki) | Ki (SERT; read-out: Binding SERT Ki) | IC50 [1, 4] | IC50 [2] | further results
1 | CN1CC2C[C@@]2(c2ccc(Cl)c(Cl)c2)C1 (stereo partly shown) | 81 nM | 105 nM | 16 nM | 23 nM | 120 nM | –
2 | CN1CC2C[C@]2(c2ccc(Cl)c(Cl)c2)C1 (stereo partly shown) | 490 nM | 62 nM | 125 nM | 87 nM | 130 nM | –
3 | CCN1CC2C[C@@]2(c2ccc(Cl)c(Cl)c2)C1 (stereo partly shown) | 32 nM | 13 nM | 88 nM | 56 nM | 80 nM | –
4 | CCN1CC2C[C@]2(c2ccc(Cl)c(Cl)c2)C1 (stereo partly shown) | 585 nM | 46 nM | 113 nM | 45 nM | 190 nM | –
5 | CCCN1CC2CC2(c2ccc(Cl)c(Cl)c2)C1 (stereo not shown) | 1830 nM | 250 nM | 1670 nM | 470 nM | 1000 nM | –
6 | CCCN1CC2C[C@@]2(c2ccc(Cl)c(Cl)c2)C1 (stereo partly shown) | 4000 nM | 220 nM | 2000 nM | 590 nM | 1800 nM | –
7 | CCCN1CC2C[C@]2(c2ccc(Cl)c(Cl)c2)C1 (stereo partly shown) | 1070 nM | 170 nM | 2400 nM | 390 nM | 770 nM | –
8 | CCCCN1CC2CC2(c2ccc(Cl)c(Cl)c2)C1 (stereo not shown) | 2200 nM | 240 nM | 6100 nM | 1200 nM | 78 nM | –
9 | CCCCN1CC2C[C@@]2(c2ccc(Cl)c(Cl)c2)C1 (stereo partly shown) | 1900 nM | 395 nM | 7600 nM | 3000 nM | 2200 nM | –
10 | CCCCN1CC2C[C@]2(c2ccc(Cl)c(Cl)c2)C1 (stereo partly shown) | 1100 nM | 215 nM | 8900 nM | 2600 nM | 1200 nM | –
11 | CC(C)N1CC2CC2(c2ccc(Cl)c(Cl)c2)C1 (stereo not shown) | 827 nM | 39 nM | 124 nM | 30 nM | 260 nM | –
12 | CC(C)N1CC2C[C@@]2(c2ccc(Cl)c(Cl)c2)C1 (stereo partly shown) | 510 nM | 25 nM | 330 nM | 170 nM | 330 nM | –
13 | CC(C)N1CC2C[C@]2(c2ccc(Cl)c(Cl)c2)C1 (stereo partly shown) | 5150 nM | 72 nM | 132 nM | 100 nM | 430 nM | –
14 | Clc1ccc(C23CC2CN(C2CC2)C3)cc1Cl (stereo not shown) | 9500 nM | 1700 nM | 3700 nM | 2600 nM | 1500 nM | –
15 | CC(C)(C)N1CC2CC2(c2ccc(Cl)c(Cl)c2)C1 (stereo not shown) | – | – | – | – | – | Ki (NET): 9300 nM; Ki (DAT): 420 nM; Ki (SERT): 800 nM; IC50 [1]: 240 nM; IC50 ([2]; [3H]DA, rat striatum synaptosomes, 15 min at 37° C., read-out: Uptake IC50 (nM) DA): 1500 nM
16 | CN1CC2CC2(c2ccc(F)cc2F)C1 (stereo not shown) | 6600 nM | – | – | 1100 nM | 7400 nM | –
17 | CN1CC2CC2(c2ccc(F)c(F)c2)C1 (stereo not shown) | 990 nM | 1900 nM | 1600 nM | 400 nM | 1800 nM | –
18 | Fc1ccc(C23CNCC2C3)cc1Cl (stereo not shown) | 1700 nM | 680 nM | 230 nM | 310 nM | 1400 nM | –
19 | Fc1ccc([C@]23CNCC2C3)cc1Cl (stereo partly shown) | – | – | – | 186 nM | 572 nM | –
20 | CN1CC2CC2(c2ccc(F)c(Cl)c2)C1 (stereo not shown) | 350 nM | 640 nM | 190 nM | 79 nM | 770 nM | –
21 | CN1CC2C[C@@]2(c2ccc(F)c(Cl)c2)C1 (stereo partly shown) | – | – | – | 362 nM | 494 nM | –
22 | CN1CC2C[C@]2(c2ccc(F)c(Cl)c2)C1 (stereo partly shown) | – | – | – | 835 nM | – | –

Row | Structure (SMILES) | Ki (NET; read-out: Binding NET Ki) | Ki (DAT; read-out: Binding DAT Ki) | Ki (SERT; read-out: Binding SERT Ki) | IC50 [1, 4] | IC50 [2] | further results
23 | Fc1cc([C@]23CNCC2C3)ccc1Cl (stereo partly shown) | – | – | – | 252 nM | 420 nM | –
24 | CN1CC2C[C@@]2(c2ccc(Cl)c(F)c2)C1 (stereo partly shown) | – | – | – | 413 nM | 437 nM | –
25 | CN1CC2CC2(c2ccc(Cl)cc2Cl)C1 (stereo not shown) | 6200 nM | – | 500 nM | 520 nM | 10000 nM | –
26 | Cc1cc(C23CC2CN(C)C3)ccc1F (stereo not shown) | 920 nM | 2200 nM | 540 nM | 200 nM | 370 nM | –
27 | Cc1ccc(C23CNCC2C3)cc1F (stereo not shown) | – | – | – | 266 nM | 457 nM | –
28 | Cc1ccc([C@]23CNCC2C3)cc1F (stereo partly shown) | – | – | – | 133 nM | 401 nM | –
29 | Cc1ccc(C23CC2CN(C)C3)cc1F (stereo not shown) | 260 nM | 270 nM | 830 nM | 110 nM | 700 nM | –
30 | Cc1ccc([C@@]23CC2CN(C)C3)cc1F (stereo partly shown) | – | – | – | 836 nM | 383 nM | –
31 | Cc1ccc([C@]23CC2CN(C)C3)cc1F (stereo partly shown) | – | – | – | 702 nM | 917 nM | –
32 | CN1CC2CC2(c2ccc([N+](=O)[O-])c(Cl)c2)C1 (stereo not shown) | – | – | 710 nM | 790 nM | – | –
33 | CN1CC2CC2(c2cccc3ccccc23)C1 (stereo not shown) | – | – | – | 119 nM | 512 nM | –
34 | CN1CC2C[C@@]2(c2cccc3ccccc23)C1 (stereo partly shown) | – | – | – | – | 903 nM | –
35 | c1ccc2cc([C@]34CNCC3C4)ccc2c1 (stereo partly shown) | – | – | – | – | 49 nM | IC50 [1]: 65 nM
36 | c1ccc2cc([C@@]34CNCC3C4)ccc2c1 (stereo partly shown) | – | – | – | – | 98 nM | IC50 [1]: 170 nM
37 | CN1CC2CC2(c2ccc3ccccc3c2)C1 (stereo not shown) | 520 nM | 68 nM | 6 nM | 31 nM | 350 nM | –
38 | CN1CC2C[C@@]2(c2ccc3ccccc3c2)C1 (stereo partly shown) | – | – | – | < 10 nM | 82 nM | –
39 | CN1CC2C[C@]2(c2ccc3ccccc3c2)C1 (stereo partly shown) | – | – | – | 117 nM | 147 nM | –
40 | COc1ccc2cc(C34CNCC3C4)ccc2c1 (stereo not shown) | – | – | – | 82 nM | 208 nM | –
41 | COc1ccc2cc(C34CC3CN(C)C4)ccc2c1 (stereo not shown) | – | – | – | 14 nM | 91 nM | –
42 | CCOc1ccc2cc(C34CNCC3C4)ccc2c1 (stereo not shown) | – | – | – | 700 nM | 563 nM | –
43 | CCOc1ccc2cc(C34CC3CN(C)C4)ccc2c1 (stereo not shown) | – | – | – | 210 nM | 360 nM | –
44 | Clc1ccc(C23CNCC2C3)cc1Cl (stereo not shown) [1-(3,4-dichlorophenyl)-3-azabicyclo[3.1.0]hexane] | – | – | – | – | – | inhibition of reuptake of norepinephrine, serotonin and dopamine [3]: inhibit reuptake of norepinephrine, serotonin and dopamine

Source: patent publication US8877798B2, “1-aryl-3-azabicyclo[3.1.0]hexanes: preparation and use to treat neuropsychiatric disorders” (priority 2005, dated 2014)
